Calls of active or inactive are those of the source. No cut-off for these calls is given here.

Broadly, the inhibition is the share of the control response that was lost under treatment. Broadly, the EC50 is the midpoint of the concentration-response curve.

Assay [1] relates to Severe acute respiratory syndrome coronavirus 2. Kind of assay: Inhibition of C-terminal 6his-tagged/N-terminal strepII-tagged SARS-CoV-2 NSP5 expressed in Escherichia coli BL21 (DE3) cells using (4-Fluoro-F)LQS as substrate assessed as (4-fluoro-F)L production at 48 uM preincubated with compound for 60 mins followed by substrate addition and measured after 300 mins by LC-MS analysis relative to control. As to conditions: time 360.0 min.

A further assay has as its system Glioblastoma cell line. Put plainly: Cytotoxicity against glioblastoma (unknown origin) cells assessed as reduction in cell viability at 35 uM incubated for 24 hrs by eFluor 780 fixable viability dye based flow cytometric analysis. Type of assay: functional. On the technique in general: Flow cytometry measures light scatter and fluorescence of single cells or particles in a stream.

In the next assay the test system is SARS-CoV-2. Put plainly: Antiviral activity against SARS-CoV-2 GX_P2V infected in African green monkey Vero E6 cells assessed as reduction in viral yield pretreated with cells for 2 hrs followed by viral infection and measured after 72 hrs by qRT-PCR analysis. Type of assay: functional, organism-based. As to conditions: Severe acute respiratory syndrome coronavirus 2, GX_P2V, Vero C1008. Background: In qPCR the cycle at which signal appears reflects the starting amount.

In the next assay the target is Caspase-8 (Homo sapiens) (UniProt Q14790). Put plainly: Inhibition of C-terminal 6his tagged human Caspase 8 activity expressed in Escherichia coli BL21 (DE3) cells at 50 uM preincubated for 30 mins by LC-MS analysis.
Caspase-8 (Homo sapiens), sequence (Q14790 217-374 limits assumed): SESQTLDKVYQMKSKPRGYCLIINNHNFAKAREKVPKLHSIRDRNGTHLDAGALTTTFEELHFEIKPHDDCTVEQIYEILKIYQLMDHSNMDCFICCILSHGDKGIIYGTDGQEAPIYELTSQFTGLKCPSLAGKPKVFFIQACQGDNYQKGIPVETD
Caspase-8 (Homo sapiens), sequence (Q14790 385-479 limits assumed): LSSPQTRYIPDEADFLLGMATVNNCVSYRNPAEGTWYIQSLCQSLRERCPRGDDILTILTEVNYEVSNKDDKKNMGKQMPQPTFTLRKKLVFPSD

In the case of `C=C1C(=O)O[C@@]23C1CC[C@@H](C)[C@@H]2CC[C@@]1(C)O[C@@H]31` (stereo not given in full), the inhibition in assay [1] was 45%. In addition, the outcome with Glioblastoma cell line was Active. Moreover, in the assay on SARS-CoV-2, the EC50 worked out at 8.84 µM. Moreover, the inhibition entry at Caspase-8 (Homo sapiens) was “Active”.

On to `C[C@@H]1CC[C@H]2[C@H](C)C(=O)O[C@]23[C@H]1CC[C@@]1(C)O[C@@H]31`, for which the outcome with Glioblastoma cell line was inactive.

The values above are taken from ChEMBL document CHEMBL5370565, “Inhibition of Cysteine Proteases via Thiol-Michael Addition Explains the Anti-SARS-CoV-2 and Bioactive Properties of Arteannuin B” (J Nat Prod, 2023).
